Test results from ChEMBL document CHEMBL4765281, “Development of a novel nitric oxide (NO) production inhibitor with potential therapeutic effect on chronic inflammation” (Eur J Med Chem, 2020).

How the values were obtained:
[1] = test system: RAW264.7; assay: Inhibition of LPS-induced nitric oxide production in mouse RAW264.7 cells at 10 uM measured after 24 hrs by Griess reagent based assay relative to control; type: functional
[2] = test system: RAW264.7; assay: Inhibition of LPS-induced nitric oxide production in mouse RAW264.7 cells; type: functional, cell-based
[3] = test system: RAW264.7; assay: Inhibition of LPS-induced nitric oxide production in mouse RAW264.7 cells measured after 24 hrs by Griess reagent based assay; type: functional, cell-based; conditions: RAW264.7, 24 h
[4] = test system: RAW264.7; assay: Cytotoxicity against mouse RAW264.7 cells assessed as reduction in cell viability measured after 24 hrs by MTT assay; type: cell-based; conditions: RAW264.7, 24 h

Compound	inhibition at 10 µM [1]	other results
COc1ccc(/C=C/C(=O)c2c(O)cc(OC)cc2OC)c(OC)c1	67.6%	–
COc1ccc(OC)c(C(=O)/C=C/c2ccc(N(C)C)cc2)c1	–	IC50 [2]: 0.7 µM
COc1cc(O)c(C(=O)/C=C/c2ccc(OCCO)cc2)c(OC)c1	73.6%	–
COc1cccc(/C=C(\C)C(=O)c2c(O)cc(OC)cc2OC)c1	68.3%	–
COc1cc(O)c(C(=O)/C(F)=C/c2ccc(OC)c(OC)c2)c(OC)c1	62.6%	–
COc1cc(O)c(C(=O)/C=C/c2ccc(OCCCO)cc2)c(OC)c1	78.2%	–
COc1cc(O)c(C(=O)/C(F)=C/c2ccc(C)cc2)c(OC)c1	50.8%	–
COc1cc(O)c(C(=O)/C=C/c2ccc(OC)c(Br)c2)c(OC)c1	73.8%	–
COc1cc(O)c(C(=O)/C=C/c2cc(OC)c(OC)cc2OC)c(OC)c1	78.4%	–
COc1cc(O)c(C(=O)/C=C/c2ccc(OC)c(OC)c2)c(OC)c1	78.7%	–
COc1cc(O)c(C(=O)/C(F)=C/c2ccc(O)cc2)c(OC)c1	70%	–
COc1ccc(/C=C(\C)C(=O)c2c(O)cc(OC)cc2OC)cc1	41.6%	–
COc1cc(O)c(C(=O)/C=C/c2cccnc2)c(OC)c1	78%	–
COc1cc(/C=C/C(=O)c2ccc(F)cc2)cc(OC)c1OC	–	IC50 [2]: 0.033 µM
COc1cccc(CCC(=O)c2c(O)cc(OC)cc2OC)c1	52.2%	–
COc1cc(O)c(C(=O)/C=C/c2cc(OC)c(OC)c([N+](=O)[O-])c2)c(OC)c1	30.8%	–
O=c1cc(-c2ccc(O)c(O)c2)oc2cc(O)cc(O)c12 [LUTEOLIN]	54.6%	IC50 [3]: 9.2 µM; IC50 [4]: > 40 µM
COc1cc(O)c(C(=O)/C=C/c2ccc([N+](=O)[O-])cc2)c(OC)c1	35.4%	–
COc1ccc(/C=C/C(=O)c2ccc(OC)cc2O)cc1	70%	–
COc1cccc(C(=O)/C=C/c2cc(OC)c(OC)c(OC)c2)c1	–	IC50 [2]: 2.88 µM
COc1cc(O)c(C(=O)/C=C/c2ccccc2)c(OC)c1 [FLAVOKAWAIN B]	80.6%	IC50 [3]: 4.2 µM; IC50 [4]: 26.5 µM
COc1ccccc1C(=O)/C=C/c1ccc(Cl)c(Cl)c1	–	IC50 [2]: 7.1 µM
COc1cc(O)c(C(=O)/C=C/c2cc(OC)c(OC)c(OC)c2)c(OC)c1	77.4%	–
COc1cc(O)c(C(=O)/C=C/c2ccc(OCCCN3CCCCC3)c(OC)c2)c(OC)c1	74.8%	–
COc1ccc(/C=C/C(=O)c2c(O)cc(OC)cc2OC)cc1 [FLAVOKAWAIN A]	79.5%	–
COc1cc(O)c(C(=O)/C=C/c2ccc(C)cc2)c(OC)c1	82.1%	IC50 [3]: 6.3 µM; IC50 [4]: > 40 µM
CC1(C)C=Cc2cc(C(=O)/C=C/c3ccc(O)cc3)c(O)cc2O1 [4-HYDROXYISOLONCHOCARPIN]	–	IC50 [2]: 2.4 µM
COc1cccc(O)c1C(=O)/C=C/c1ccccc1	–	IC50 [2]: 9.6 µM
